The numbers were not newly measured in US20260271921A1, “DILUTION-INDUCED RELEASE COMPOSITIONS AND METHODS OF USE THEREOF” (priority 2025, published 2026), which cites them from elsewhere.

As a reminder, the logP is a log measure of how a compound divides between an organic and an aqueous phase.

Take `CCN(CC)c1ccc2nc3c4ccccc4c(=O)cc-3oc2c1` [Nile Red]: the logP is 3.65.
